# According to US20230242616A1, “CHEMOKINE-SELECTIVE CXCR4 ECTODOMAIN-DERIVED (POLY)PEPTIDE” (Ludwig-Maximilians-Universität München, priority 2020, published 2023):
# Columns and labels:
# [1] = system: MonoMac-6 monocytes on human aortic endothelial cells (HAoECs); assay: Static monocyte adhesion, MIF-induced; format: cell-based; conditions: 16 nM MIF, 320 nM peptide
# Experimental: Static monocyte adhesion. HAoECs were seeded at a density of 30.000 cells/well in 6 well μ-Ibidi Perfusion slides VI 0.4 (Ibidi GmbH). […] After perfusion of the chambers with fresh medium, MonoMac6 cells (1×10^6 cells/mL) in PromoCell medium were added for 30 min. Non-adhering cells were flushed away by gentle perfusion using a 30 mL syringe. To quantify adherent monocytes, 10 individual images from each treatment were acquired using a Leica DMi8 inverted microscope with a 10× objective and cells quantified using Image J.
# [2] = system: Apoe−/− mice with established plaques; assay: Regression model of atherosclerosis; format: in vivo, mouse
# Excerpt: Control mice received saline. Mice were sacrificed after 9 weeks and vessel tissues prepared for plaque, cell, and macrophage staining. A. C, E, staining of aortic root sections with oil red O (ORO), hematoxylin eosin (HE), and anti-CD68, respectively. G, staining of aortic arch with HE. B, D, F, H, respective quantifications from 14 mice per group. Statistics: two-tailed, unpaired Mann-Whitney test; *, P<0.05; **, P<0.01.
# To further test the therapeutic applicability of msR4M-L1, an in vivo test in a “regression setting” was applied to mimic the patient situation, who is typically seen by a physician only when symptoms occur. The real-life situation is thus one in which preformed plaques already exist, when a patient starts treatment. A regression model therefore better mimics the situation in patient with pre-existing atherosclerotic disease.
# In a pilot study, atherogenic ApoE−/− mice were put on Western diet for 4.5 wks.
# mouse MIF = mouse MIF (Mus musculus, UniProt P34884); assay: Dot blot with TAMRA-msR4M-L1, human versus mouse MIF; format: binding
# Experimental: Dot blot. […] Non-specific binding was blocked with Tris-buffered saline (TBS), pH 7.4, containing 0.1% Tween-20 (TBS-T) and 1% BSA. […] Fluorescence intensities were measured at 600 nm using an Odyssey® Fc imager (LICOR Biosciences, Bad Homburg, Germany). The total intensity of each spot was automatically corrected by the individual background signal.
# Apoe−/− mice on HFD = assay: Cytokine array on plasma of treated mice; format: in vivo, mouse; conditions: reductions for IFN-γ, IL-1α, IL-16, TNF-α, CXCL13/BLC
# Experimental: Cytokine array. Cytokine/chemokine profiling was performed from plasma samples of msR4M-L1-versus vehicle-treated Apoe^−/− mice using mouse cytokine array panel A (R&D Systems, ARY006) according to the manufacturer's instructions. Plasma samples were diluted (1:10) in array buffer; incubated with antibody detection cocktail for 1 h at RT, exposed to the blocked membranes (overnight, 4° C.), membranes washed and incubated with streptavidin-HRP conjugate working solution (30 min, RT). Membranes were developed with Chemi-Reagent Mix and analyzed by Odyssey® Fc imager. The average signal (pixel density) of duplicate spots was quantified by ImageJ.
# [3] = biological target: T1, human CXCR4 (CXCL12/CXCR4) (Homo sapiens, UniProt P48061); assay: CXCR4-specific signaling in yeast (lacZ reporter), CXCL12-triggered; format: cell-based; conditions: 2 μM CXCL12
# T1 construct: expressed in transfected cells; host or cells: S. cerevisiae strain CY12946
# Experimental: CXCR4-specific signaling in a yeast-based cell system. […] Briefly, yeast transformants stably expressing human CXCR4 were grown overnight at 30° C. in yeast nitrogen base selective medium (Formedium, UK). Cells were diluted to an OD600 of 0.2 and grown to an OD600 of 0.3-0.6. […] OD600 was measured and activation of CXCR4 signaling quantified by β-galactosidase activity using a commercial BetaGlo Kit (Promega, Mannheim, Germany).
# [4] = Blood cell counts, lipid levels and body weight of treated mice; format: in vivo, mouse
# Excerpt: Blood cell counts, triglycerides and cholesterol levels. […] APC-conjugated anti-CD19, FITC-conjugated anti-CD3.
# human monocytes [5] = assay: 3D migration of monocytes elicited by MIF (time-lapse microscopy); format: cell-based
# Excerpt: (§1) Isolation of human peripheral blood-derived monocytes. Human peripheral blood-derived monocytes were isolated as described^14. Briefly, blood was collected from healthy donors or buffy coat obtained from the blood bank of Munich University Hospital, mixed 1:1 with PBS, and PBMCs isolated by Ficoll-Paque Plus gradient (GE Healthcare). Monocytes were purified by negative depletion using the Monocyte Isolation Kit II (Miltenyi). Monocyte purity was verified by flow cytometry using an anti-CD14 antibody (Miltenyl) and was 95-98%. […] The isolation of PBMCs from donor blood was approved by the local ethics committee of LMU Munich. 3D migration of human peripheral blood-derived monocytes by time-lapse microscopy. The 3D-migration behavior of human monocytes was assessed by time-lapse microscopy and individual cell tracking using the 3D chemotaxis μ-Slide system from Ibidi GmbH (Munich, Germany), adapting the established Ibidi dendritic cell protocol for human monocytes. […] Cell motility was monitored performing time-lapse imaging every 1 min at 37° C. for 2 h using a Leica inverted DMi8-Life Cell Imaging System equipped with a DMC2900 Digital Microscope Camera with CMOS sensor and live cell-imaging software (Leica Microsystems, Wetzlar, Germany). Images were imported as stacks to ImageJ software and analyzed with the manual tracking and chemotaxis/migration tools (Ibidi GmbH).
# human monocytes [6] = assay: 3D migration of monocytes elicited by CXCL12; format: cell-based; conditions: 5-fold molar excess
# Excerpt: as §1
# [7] = system: primary mouse spleen B lymphocytes; assay: Transwell chemotaxis of B cells elicited by CXCL12; format: cell-based
# Experimental: Chemotaxis analysis of murine B cells. A Transwell-based assay was used as described previously^34. Briefly, splenic B cells were isolated by negative depletion using a Pan B Cell Isolation Kit (Miltenyi Biotec. Bergisch Gladbach, Germany). Purity of the cells was between 95 and 99%. […] Chemotaxis was followed for 4 h at 37° C. in a humidified atmosphere of 5% CO2. Migrated cells were counted by flow cytometry using CountBright™ Absolute Counting Beads (Molecular Probes-Invitrogen).
# [8] = system: human cardiomyocytes (HCM), pAMPK; assay: MIF-triggered AMPK signaling in cardiomyocytes (MIF/CD74); format: cell-based; conditions: 16 nM MIF; 1- and 5-fold excess
# Experimental: CD74 signaling in human cardiomyocytes. Before stimulation, medium was replaced by fresh myocyte basal medium containing 0.05% FCS and HCMs rested for 16 h. Surface CD74 expression on HCMs was verified by flow cytometry (FITC-conjugated anti-human CD74, FITC-IgG2 (isotype control) (BD Pharmingen), 1 h/4° C. in the dark, BD FACSVerse™ flow cytometer, FlowJo software). […] After treatment, cells were lysed and subjected to SDS-PAGE/Western blotting. […] Anti-rabbit horseradish peroxidase (HRP)-conjugated antibody (1:10000, GE Healthcare, Freiburg, Germany) was used for development and signals quantitated by chemiluminescence using an Odyssey® Fc imager.
# T1 sequence (P48061 22-89 limits assumed): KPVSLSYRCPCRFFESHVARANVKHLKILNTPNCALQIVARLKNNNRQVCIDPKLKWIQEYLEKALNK
smiles,measurement,setting,value
CC[C@H](C)[C@H](NC(=O)[C@H](Cc1ccc(O)cc1)NC(=O)[C@H](CCCNC(=N)N)NC(=O)[C@H](CC(=O)O)NC(=O)CCCCCCCCCCCNC(=O)CCCCCNC(=O)[C@H](CCCCN)NC(=O)[C@H](CS)NC(=O)[C@H](CC(C)C)NC(=O)[C@H](Cc1ccccc1)NC(=O)[C@H](CC(N)=O)NC(=O)CNC(=O)[C@H](Cc1ccccc1)NC(=O)[C@H](Cc1ccc(O)cc1)NC(=O)[C@H](Cc1c[nH]c2ccccc12)NC(=O)[C@H](CC(N)=O)NC(=O)[C@H](C)NC(=O)[C@@H](NC(=O)[C@H](C)NC(=O)[C@@H](N)CC(=O)O)C(C)C)C(=O)N[C@@H](CS)C(=O)N[C@@H](CC(=O)O)C(=O)N[C@@H](CCCNC(=N)N)C(=O)N[C@@H](Cc1ccccc1)C(=O)N[C@@H](Cc1ccc(O)cc1)C(=O)N1CCC[C@H]1C(=O)N[C@@H](CC(N)=O)C(=O)N[C@@H](CC(=O)O)C(=O)N[C@@H](CC(C)C)C(=O)N[C@@H](Cc1c[nH]c2ccccc12)C(=O)N[C@H](C(N)=O)C(C)C [msR4M-L1],effect on MIF-induced static monocyte adhesion,[1],ablated the pro-adhesion effect of MIF
same,"plaque load, pilot regression study","[2]; 4-5 mice per group, 50 μg/mouse, 3× per week",decreased plaque load (trend)
same,"atherosclerotic plaques (ORO and HE aortic root, HE aortic arch), regression study",[2]; 14 mice per group,leads to a regression of atherosclerotic plaques
same,"intralesional inflammation, CD68+ macrophage area",[2]; 14 mice per group,reduced
same,binding to human versus mouse MIF on dot blot,mouse MIF,binds equally well to human and mouse MIF
same,circulating inflammatory cytokine levels,Apoe−/− mice on HFD,marked reduction
same,effect on CXCL12/CXCR4-elicited signaling,[3],remained unaffected
same,Leukocytes,"[4]; Apoe−/− mice, HFD 4.5 weeks",4632 ± 286 per μL
same,Lymphocytes,"[4]; Apoe−/− mice, HFD 4.5 weeks",2347 ± 50 per μL
same,Monocytes,"[4]; Apoe−/− mice, HFD 4.5 weeks",552 ± 51 per μL
same,Neutrophils,"[4]; Apoe−/− mice, HFD 4.5 weeks",1897 ± 46 per μL
same,Triglycerides,"[4]; Apoe−/− mice, HFD 4.5 weeks",156.7 ± 3.8 mg/dL
same,Weight,"[4]; Apoe−/− mice, HFD 4.5 weeks",22.3 ± 0.2 g
same,Cholesterol,"[4]; Apoe−/− mice, HFD 4.5 weeks, means ± SD",647.4 ± 19.2 mg/dL
same,"effect on body weight, plasma total cholesterol, triglyceride levels, blood leukocyte counts","[4]; mouse, in vivo",did not observe any effect
same,effect on MIF-triggered 3D monocyte migration,human monocytes [5],dose-dependently attenuated
same,molar excess that ablates the pro-migratory effect of MIF,human monocytes [5],2 -fold molar excess
same,effect on CXCL12-induced cell motility,human monocytes [6],remained unaffected
same,effect on CXCL12-elicited B-cell chemotaxis,[7],unable to inhibit chemotaxis elicited by CXCL12
same,effect on MIF-upregulated pAMPK levels,[8],not attenuated
